Test results from patent US20160024083A1, “COMPOUNDS AND METHODS FOR TREATING CANCERS” (HEALTH RESEARCH, INC., priority 2013, published 2016).

Key:
HMEC = test: Sensitivity to growth inhibition, HMEC; format: cell-based; conditions: normal breast
Hela = test: Inhibition of growth / toxicity in non-target Hela cells; format: cell-based
Experimental: (§1) This example provides a table (below) of the compounds of the present disclosure and their activity towards four different cell lines (i.e., CWR22R, HeLa, PC3, and MDA-MB-231). The IC50 for inhibition of growth is divided into 4 categories: A<1 μM, B 1-5 μM, C 5-20 μM, D>20 μM.
(§2) All compounds were tested for toxicity using 4 cells lines, target cells—CWR22R and non-target cells, Hela, PC3 and MDA-MB-231 (FIGS. 1A-F).

AU565 = test: Sensitivity to growth inhibition, AU565; format: cell-based; conditions: Luminal breast carcinoma, AR+
VCaP = test: Sensitivity to growth inhibition, VCaP; format: cell-based; conditions: castration resistant prostate cancer, Armut
MRC5 = test: Sensitivity to growth inhibition, MRC5; format: cell-based; conditions: normal fibroblasts, AR−
Du145 = test: Sensitivity to growth inhibition, Du145; format: cell-based; conditions: castration resistant prostate cancer, AR−
Hep3B = test: Sensitivity to growth inhibition, Hep3B; format: cell-based; conditions: hepatocellular carcinoma, AR +
RCC45 = test: Sensitivity to growth inhibition, RCC45; format: cell-based; conditions: renal cell carcinoma, AR−
HCC1419 = test: Sensitivity to growth inhibition, HCC1419; format: cell-based; conditions: Luminal breast carcinoma, AR+
SKRC45 = test: Sensitivity to growth inhibition, SKRC45; format: cell-based; conditions: renal cell carcinoma, AR−
PANC1 = test: Sensitivity to growth inhibition, PANC1; format: cell-based; conditions: pancreatic adenocarcinoma, AR−
ZR751 = test: Sensitivity to growth inhibition, ZR751; format: cell-based; conditions: Luminal breast carcinoma, AR+
MDAMB453 = test: Sensitivity to growth inhibition, MDAMB453; format: cell-based; conditions: Luminal breast carcinoma, AR+
EFM192A = test: Sensitivity to growth inhibition, EFM192A; format: cell-based; conditions: Luminal breast carcinoma, AR−
HCC202 = test: Sensitivity to growth inhibition, HCC202; format: cell-based; conditions: Luminal breast carcinoma, AR−
ZR7530 = test: Sensitivity to growth inhibition, ZR7530; format: cell-based; conditions: Luminal breast carcinoma, AR+
SUM185PE = test: Sensitivity to growth inhibition, SUM185PE; format: cell-based; conditions: Luminal breast carcinoma, AR+
HT1080 = test: Sensitivity to growth inhibition, HT1080; format: cell-based; conditions: fibrosarcoma AR−
MiaPaca = test: Sensitivity to growth inhibition, MiaPaca; format: cell-based; conditions: pancreatic adenocarcinoma, AR−
LNCaP = test: Sensitivity to growth inhibition, LNCaP; format: cell-based; conditions: castration resistant prostate cancer, AR+
normal hepatocytes = test: Sensitivity to growth inhibition, normal hepatocytes; format: cell-based
ACHN = test: Sensitivity to growth inhibition, ACHN; format: cell-based; conditions: renal cell carcinoma, AR−
PC3 = test: Inhibition of growth / toxicity in non-target PC3 cells; format: cell-based; conditions: castration resistant prostate cancer, AR−
Experimental: as §1, §2

CAMA1 = test: Sensitivity to growth inhibition, CAMA1; format: cell-based; conditions: Luminal breast carcinoma, AR+
MDA-MB-231 = test: Inhibition of growth / toxicity in non-target MDA-MB-231 cells; format: cell-based; conditions: Homo sapiens
Experimental: as §1, §2

MCF7 = test: Sensitivity to growth inhibition, MCF7; format: cell-based; conditions: Luminal breast carcinoma, AR+
C4-2 = test: Sensitivity to growth inhibition, C4-2; format: cell-based; conditions: castration resistant prostate cancer, AR+
NKE = test: Sensitivity to growth inhibition, NKE; format: cell-based; conditions: normal kidney, AR−
PPC1 = test: Sensitivity to growth inhibition, PPC1; format: cell-based; conditions: castration resistant prostate cancer, AR−
UACC893 = test: Sensitivity to growth inhibition, UACC893; format: cell-based; conditions: Luminal breast carcinoma, AR+
MCF10A = test: Sensitivity to growth inhibition, MCF10A; format: cell-based; conditions: mammary gland epithelium
HepG2 = test: Sensitivity to growth inhibition, HepG2; format: cell-based; conditions: hepatocellular carcinoma, AR +
T47D = test: Sensitivity to growth inhibition, T47D; format: cell-based; conditions: Luminal breast carcinoma, AR+
BT474 = test: Sensitivity to growth inhibition, BT474; format: cell-based; conditions: Luminal breast carcinoma, AR+
MDAMB415 = test: Sensitivity to growth inhibition, MDAMB415; format: cell-based; conditions: Luminal breast carcinoma, AR+
CWR22R = test: cells; format: cell-based
Experimental: FIG. 21. Toxicity of PLA1055 to CWR22R cells in vitro depending on time of incubation. PLA1055 was added to CWR22R in full range of concentrations for the periods of time shown on the right. After that drug containing media were changed for drug free and survival of cells was detected at 72 hours after start of treatment using Alamar Blue assay (Promega).
as §1, §2
(§3) LC50 data of in vitro 72 hours cytotoxicity assay are included in this table for comparison.
An in vitro experiment was run to detect the concentration of PLA1055 needed to kill all tumor cells in vitro (LC90) during different periods of time (30 minutes-72 hours, FIG. 21)).

[1] = test system: presumable target protein; test: DARTS (Drug Affinity Responsive Target Stability) assay in CWR22r lysates; format: binding; conditions: protein lysates from CWR22r cells
Experimental: FIG. 24. DARTS (Drug Affinity Responsive Target Stability) assay was performed using c52 and PLA1118. According to this assay these compounds are capable of protecting presumable target protein from protease degradation. Protein lysates from sensitive CWR22r cells were incubated with or without the drug and subsequently digested with the indicated concentration of pronase. A. c52 was used (lane T-treated, M-marker) with indicated concentrations of pronase; ability of c52 to protect its target from protease cleavage was judged based on presence of protein band in the treated lane vs the untreated (UT) control.
Target identification through affinity chromatography and sensitivity to proteolysis methods was undertaken. […] These bands were excised from gel and sent for protein sequencing. (FIG. 24).

[2] = Tissue drug concentrations (tumor, liver, plasma) in treated CWR22R tumor-bearing mice; format: in vivo
Experimental: (§4) We tested these compounds in an in vivo efficacy experiment using model of CRPC in SCID mice, CWR22R. Two compounds, PLA1079 and 1125, which were synthesized in the amount of 500 mg were tested in full scale experiment with either 5 IV daily injections or 10 IP daily injections. After 5 IP or IV injections intra-tumor concentration of the compounds were measured in few mice from this experiment.
Two other compounds, PLA1148 and 1098 (PK testing in FIGS. 8 and 9) were tested in a small scale efficacy experiment. Upon PK testing of the compound PLA1148 one mouse was injected twice with 10 min interval. However the concentration of the drug in plasma of this mouse was not twice, but >4 times higher than in mice injected once. […] It was decided to utilize this observation in an attempt to get higher plasma and tumor concentration of both compounds. Therefore in the pilot efficacy experiment in the same model of CWR22R cells mice were treated with 2 IP injections with 10 minute interval. Treatment with PLA1098 was carried out for two days. […] However this is so far the highest concentration found in tumor. […]
as §3

[3] = Plasma concentration (PK) after intravenous and intraperitoneal injections; format: in vivo; conditions: 50-100 mg/kg; for plasma concentration time course: after IV and IP injections; for bioavailability through IP injection: plasma concentrations similar or even higher after IP than IV
[4] = Toxicity / side effects in treated mice; format: in vivo
Experimental: (§5) Two other compounds, PLA1148 and 1098 (PK testing in FIGS. 8 and 9) were tested in a small scale efficacy experiment. Upon PK testing of the compound PLA1148 one mouse was injected twice with 10 min interval. However the concentration of the drug in plasma of this mouse was not twice, but >4 times higher than in mice injected once. […] It was decided to utilize this observation in an attempt to get higher plasma and tumor concentration of both compounds. Therefore in the pilot efficacy experiment in the same model of CWR22R cells mice were treated with 2 IP injections with 10 minute interval. Treatment with PLA1098 was carried out for two days. […] However this is so far the highest concentration found in tumor.
This compound may be also potentially promising.

CWR22R tumors = test: In vivo efficacy, subcutaneous xenografts of CWR22R cells in SCID mice
Experimental: as §4, §5
Pilot efficacy experiments were run for compounds: PLA1163, PLA1148 using the same model of subcutaneous xenografts of CWR22R cells in SCID mice (FIGS. 18 and 19).

p21 = p21 expression upon treatment; format: cell-based; conditions: sensitive cells
androgen receptor = test: Androgen receptor level / degradation in cells; format: cell-based; conditions: CWR22r or MCF7 cells with inhibited p53 activity
Excerpt: (§6) Also tested was the hypothesis that degradation of androgen receptor in prostate and breast cancer cells may be due to p53 induced accumulation of mdm2, which is also ubiquitin ligase for androgen receptor (FIG. 15). p53 was inactivated in several cell lines using different approaches what led to the blockade of mdm2 accumulation after c52 treatment. However androgen receptor was still degraded in c52 treated cells even in the absence of p53 activation and mdm2 accumulation (FIG. 16).

Caveolin 1 = Caveolin 1 expression in sensitive versus resistant cells; format: cell-based; conditions: MDA MB 231 and MCF7 cells
Experimental: FIG. 12. Expression of Caveolinl in sensitive versus resistant cells. Caveolinl is expressed in resistant MDA MB 231 cells, but not in sensitive MCF7 cells.
Analysis of gene expression among 50 breast cancer cell lines differed in sensitivity as well as shRNA screening of resistant breast cancer cells identified Calveolin (FIG. 11) as a potential gene associated with resistance to c52. mRNA expression of Calveolin1 was tested among our sensitive and resistant cells as well as in response to c52 treatment. As expected Calveolin1 was expressed only in resistant cells, however it was not changed upon c52 treatment (FIG. 12). […] Calveolin1 was cloned in lentiviral expression vector and are now testing if overexpression of Calveolin1 in sensitive cells will make them resistant to c52 treatment.

Mdm2 = Mdm2 accumulation, Western Blot; format: cell-based; conditions: MCF7 cells with functionally inactive p53 (R175H, GSE56)
Experimental: Results of Western Blot analysis: CWR22r cells were treated with 1 uM c52 for indicated time intervals.
as §6

For `CCCn1c2ccccc2c2cc(C(C)=O)ccc21` [Compound 1-3, 1-(9-propyl-9H-carbazol-3-yl)ethanone], the “Compound 1-3 sensitivity” value (HMEC) was “R”, the “Compound 1-3 sensitivity” value (Hela; Hela, cervix adenocarcinoma, AR−) was “R” and the IC50 (Hela; Homo sapiens, HeLa) was > 20000 nM. For the same molecule, the “Compound 1-3 sensitivity” value (AU565) was “S”, the “Compound 1-3 sensitivity” value (VCaP) was “R” and the “Compound 1-3 sensitivity” value (MRC5) was “R”. For the same molecule, the “Compound 1-3 sensitivity” value (Du145) was “R”, the “Compound 1-3 sensitivity” value (Hep3B) was “S” and the “Compound 1-3 sensitivity” value (RCC45) was “R”. The “Compound 1-3 sensitivity” value (HCC1419) was “R”, the “Compound 1-3 sensitivity” value (SKRC45) was “R” and the “Compound 1-3 sensitivity” value (PANC1) was “R”. The “Compound 1-3 sensitivity” value (ZR751) was “S”, the “Compound 1-3 sensitivity” value (MDAMB453) was “S” and the “Compound 1-3 sensitivity” value (EFM192A) was “S”. For the same molecule, the “Compound 1-3 sensitivity” value (HCC202) was “S”, the “Compound 1-3 sensitivity” value (ZR7530) was “S” and the “Compound 1-3 sensitivity” value (SUM185PE) was “S”. The “Compound 1-3 sensitivity” value (HT1080) was “R”, the “Compound 1-3 sensitivity” value (MiaPaca) was “R” and the “Compound 1-3 sensitivity” value (LNCaP) was “S”. For the same molecule, the “Compound 1-3 sensitivity” value (normal hepatocytes) was “R”, the “Compound 1-3 sensitivity” value (ACHN) was “R” and the “Compound 1-3 sensitivity” value (PC3) was “R”. For the same molecule, the “Compound 1-3 sensitivity” value (CAMA1) was “R”, the IC50 (MDA-MB-231) was > 20000 nM and the “Compound 1-3 sensitivity” value (MCF7) was “S”. For the same molecule, the “Compound 1-3 sensitivity” value (C4-2) was “S”, the “Compound 1-3 sensitivity” value (NKE) was “R” and the “Compound 1-3 sensitivity” value (PPC1) was “R”. The “Compound 1-3 sensitivity” value (UACC893) was “R”, the “Compound 1-3 sensitivity” value (MCF10A) was “R” and the “Compound 1-3 sensitivity” value (HepG2) was “S”. The “Compound 1-3 sensitivity” value (T47D) was “S”, the “Compound 1-3 sensitivity” value (BT474) was “S” and the “Compound 1-3 sensitivity” value (MDAMB415) was “S”. The “Compound 1-3 sensitivity” value (CWR22R; CWR22R, castration resistant prostate cancer, AR+) was “S” and the IC50 (CWR22R; Homo sapiens, 22Rv1, CWR22R, read-out: IC50 for inhibition of growth) was < 1000 nM.

In the case of `CCCn1c2ccccc2c2c3c(ccc21)C(=O)N(C)C3` [PLA1098], the “protection of target protein from pronase degradation” value [1] is reported as “protected their targets from degradation”, the “Liver” value ([2]; 100 mg/kg, IP) is reported as 0 nM and the “Tumor concentration” value ([2]; 100 mg/kg, IP) is reported as 23 to 25 nM. The Intratumor concentration ([2]; 2 tested tumors, 24 hours after last injection) was 25 nM, the compound in liver ([2]; 24 hours after last injection) was “no detectable” and the compound in plasma ([2]; 24 hours after last injection) was “no detectable”. The “plasma concentration time course” value [3] was “fast reduction of concentration during the first hour”, the “bioavailability through IP injection” value [3] was “very high” and the “side effects during treatment” value ([4]; 2 IP injections with 10 minute interval, two days) was “no signs of side effects”. The signs of toxicity ([4]; summary statement) was “without any signs of toxicity”, the “tumor volume and tumor weight vs vehicle control” value (CWR22R tumors; CWR22R, 2 IP injections with 10 minute interval for two days, 12 days after treatment) was “certain reduction of tumor volume and tumor weigh in the 1098 treated group vs vehicle control, but not statistically significant” and the in vivo efficacy (CWR22R tumors; summary statement) was “evidence of in vivo efficacy”. The CC50 (CWR22R) was 40 nM.

For `CCCn1c2ccccc2c2cc(-c3nnco3)ccc21` [PLA1079], the p21 expression (p21) was “overexpression of p21 in sensitive cells”, the “Tumor concentration” value ([2]; 100 mg/kg, IP/IV) was 24 to 48 nM and the AR level (androgen receptor) was “AR is being degraded”. For the same molecule, the “Caveolin1 expression upon treatment” value (Caveolin 1) was “did not change levels of Caveolinl expression”, the “plasma concentration time course” value [3] was “fast reduction of concentration during the first hour” and the “bioavailability through IP injection” value [3] was “very high”. The Mdm2 level (Mdm2) was “Mdm2 is no longer overexpressed”, the in vivo efficacy (CWR22R tumors; CWR22R in SCID mice, 5 IV daily injections or 10 IP daily injections) was “absence of in vivo efficacy” and the CC50 (CWR22R) was 120 nM.
